This is an account of results in article PMC9841576, “Characterisation of C101248: A novel selective THIK-1 channel inhibitor for the modulation of microglial NLRP3-inflammasome” (Neuropharmacology, 2023).

Structures are written as SMILES. Like-named read-outs stand apart in the source and are kept apart here.

For one assay, the target named is T1, THIK-1 (Homo sapiens, UniProt Q9HB14).
T1 construct: expressed in transfected cells
T1 sequence (Q9HB14 1-408): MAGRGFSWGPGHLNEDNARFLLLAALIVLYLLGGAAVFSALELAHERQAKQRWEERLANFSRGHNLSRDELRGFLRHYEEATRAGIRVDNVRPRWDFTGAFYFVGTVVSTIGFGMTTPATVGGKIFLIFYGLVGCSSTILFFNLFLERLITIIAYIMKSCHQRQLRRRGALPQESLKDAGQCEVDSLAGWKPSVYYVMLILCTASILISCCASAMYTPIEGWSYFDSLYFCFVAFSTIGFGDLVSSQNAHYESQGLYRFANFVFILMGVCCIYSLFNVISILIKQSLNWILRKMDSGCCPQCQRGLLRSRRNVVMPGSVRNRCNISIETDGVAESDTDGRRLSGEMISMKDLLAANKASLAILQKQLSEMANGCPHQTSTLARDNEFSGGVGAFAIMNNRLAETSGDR
In words: FLIPR thallium influx assay, HEK-hTHIK-1 cells. In kind it is cell-based. On the procedure: HEK-293 cells were transfected with human THIK-1, TREK-1, TWIK-2, or mouse THIK-1 cDNA cloned into pcDNA3.1, using either Fugene HD transfection reagent (Promega) or electroporation (MaxCyte STX instrument). Cells stably expressing the relevant genes were selected based on resistance to 500 μg/ml geneticin (Gibco). For human THIK-1 and TWIK-2 expressing cells, monoclonal lines were isolated by limited dilution cloning; mouse THIK-1 and human TREK-1 expressing cells were maintained as polyclonal pools. The HEK-293 pools and monoclones stably expressing the relevant genes were maintained in DMEM (Life Technologies), supplemented with 10% FCIII (HyClone, Fetal clone III) and 500 μg/ml geneticin. A CHO-Kv2.1 cell line was purchased from Millipore (accession NM_004975) and maintained in F12 (Life Technologies), supplemented with 10% FCSIII (Thermo Scientific) and 500 μg/ml geneticin (Life Technologies). For thallium flux assays, banks of frozen cell aliquots were prepared the day prior to assay, cells were thawed into media and seeded into PDL coated 384-well plates (Corning) at 25,000 (human/mouse THIK-1, TREK-1) or 30,000 (TWIK-2) cells/well (25 μl/well). CHO-Kv2.1 cells were seeded into non-PDL coated plates (Corning) at 5000 cells/well. Plated cells were incubated overnight at 37 °C, 5% CO2 in a humidified atmosphere. For Q-Patch assays, cells were cultured for 7 days prior to assay, dissociated, and diluted to 1–2.5 million/ml in EX-CELL ACF serum free media containing HEPES (25 mM; Life Technologies), penicillin/streptomycin (100 U/ml, 100 μg/ml; Life Technologies) and a trypsin inhibitor (0.04 mg/ml).
A fluorescence-based thallium influx assay (Molecular Devices potassium assay kit) was used to monitor channel activity. In brief, component A was reconstituted in 17 ml of chloride-free assay buffer (130 mM sodium D-gluconate, 5 mM potassium D-gluconate, 2 mM calcium D-gluconate, 1 mM magnesium D-gluconate, 5 mM NaHCO3, 20 mM HEPES; pH adjusted to 7.4 with NaOH and filtered (0.45 μm filter)) and component C reconstituted in 30 μl of DMSO. Components A and C were combined, and probenecid was added (Life Technologies; final assay concentration (FAC) 4.75 mM for HEK cell lines and 2.47 mM for CHO-Kv2.1) to provide the final dye solution. Media was removed from the cell plates and replaced with dye (20 μl/well) and the plates were incubated at room temperature in the dark for 60 min. On the day of the assay, a diluted compound plate (3x FAC in 1.5% DMSO) was created. Control wells contained either DMSO vehicle (1.5%, 3x FAC) or tetrapentylammonium chloride (TPA; Sigma, 258962; 1.5 mM in 1.5% DMSO, 3x FAC). A 3x thallium stimulation plate was also prepared, to provide a FAC of either 1 mM (human THIK-1) or 3 mM (mouse THIK-1, TREK-1, TWIK-2) thallium sulphate (in assay buffer). For Kv2.1, the FAC of thallium sulphate was 2.6 mM and this was prepared in assay buffer containing potassium sulphate (Sigma P9458; FAC 23.3 mM). Following 60 min of dye loading, 10 μl from the 3x FAC compound plate was added into the cell plate, which was then incubated for 15 min at room temperature in the dark. Using a fluorescent imaging plate reader (FLIPR) tetra plate reader, 15 μl thallium stimulus solution was added to the cell plate and the fluorescence signal recorded every second for 1 min (excitation: 470–495 nm, emission: 515–575 nm).

Assay [1] relates to NLRP3-dependent release of IL-1β. In words: LPS/ATP-induced IL-1β release from differentiated THP1 cells overexpressing human THIK-1. The class given is cell-based. The conditions noted are these: Homo sapiens, THP-1; THIK-1 overexpressing differentiated THP1 cells, LPS/ATP; read-out: IC50, inhibition of IL-1β release. The protocol: THP1 cells, obtained from ATCC, are monocytes isolated from peripheral blood of a leukaemia patient. THP1 cells were grown in RPMI 1640 supplemented with 10% fetal bovine serum (FBS, Hyclone), 1% PenStrep (Invitrogen), and 1% GlutaMax (Invitrogen), and 0.05 mM of 2-mercaptoethanol. To overexpress human THIK-1, THP1 cells were differentiated with 100 ng/ml PMA for 24 h prior to transfection with THIK-1 mRNA synthesized as described in the supplementary material. Cell suspensions (2.5 × 10^6 cells in […]) in the presence of 200 μg/ml mRNA were electroporated with the MaxCyte (STX instrument) in an OC-25 MaxCyte Electroporation cassette using manufacturer settings for THP1 cells. Cell suspensions were transferred to a 6-well plate and allowed to recover for 20 min at 37 °C. Cells were seeded into 384-well plates (10,000 cells/well) for thallium flux assays or 96-well plates (50,000 cells/well) for inflammasome assays the following day. Overexpressing and mock-transfected cells were primed with 100 ng/ml of LPS for 3.5 h prior to addition of compounds 30 min before stimulation with 5 mM ATP. Supernatants were collected 2 h after addition of ATP and stored at −20 °C until the detection of IL-1β.
IL-1β from culture supernatants was measured with DuoSet ELISA kit (R&D Systems) following the manufacturer instructions.

Regarding `Nc1nonc1-c1nc2ccccc2n1Cc1ccncc1` [C101248], the IC50 (as a rule, the point on the concentration scale where inhibition reaches its midpoint) at THIK-1 (HEK-hTHIK-1, normalised to TPA controls, read-out: IC50, inhibition of THIK-1 constitutive activity (thallium influx)) was 46 nM; on THIK-1 (human THIK-1, read-out: IC50, inhibition of human THIK-1 (abstract)) it was ~50 nM; in assay [1] it was 135 nM. Moreover, the maximum inhibition on THIK-1 (HEK-hTHIK-1, thallium influx, normalised to TPA controls) was determined as 102%. Besides, the “potency relative to tetrapenthylammonium chloride (TPA)” value at THIK-1 (human and mouse THIK-1 constitutive activity, thallium influx and Q-patch) turned out to be 100 times.
